These are literature values, as cited in patent publication US20230413813A1, “ANTIMICROBIAL COMPOSITION COMPRISING A POLYIMIDE” (The Procter & Gamble Company, priority 2022, published 2023).

SMILES strings stand for the structures.

Consider `CC(=O)O.CC(=O)O.NC(=N\CCCCCC/N=C(N)/N=C(\N)Nc1ccc(Cl)cc1)/N=C(\N)Nc1ccc(Cl)cc1` [Chlorhexidine diaceate, Chlorhexidine diacetate], for which the solubility in water was around 1%.
